Assay results as given in US5219863A, “Angiotensin II antagonizing compounds containing a 1,5-naphthyridine or a quinoline moiety” (Imperial Chemical Industries PLC, priority 1990, dated 1993).
Where a name gives a salt, the structure may show the parent alone.

Tests used:
[1] = molecular target: T1, angiotensin II (AII) receptors, guinea pig adrenal gland membrane (Cavia porcellus, UniProt Q9WV26); test: Test A: displacement of radiolabelled AII binding to guinea pig adrenal cell surface membranes; conditions: in vitro, read-out: IC50 (concentration for 50% displacement of radiolabelled AII binding)
T1 construct: from tissue; host or cells: guinea pig adrenal gland, cell surface membrane fraction
T1 sequence (Q9WV26 1-359): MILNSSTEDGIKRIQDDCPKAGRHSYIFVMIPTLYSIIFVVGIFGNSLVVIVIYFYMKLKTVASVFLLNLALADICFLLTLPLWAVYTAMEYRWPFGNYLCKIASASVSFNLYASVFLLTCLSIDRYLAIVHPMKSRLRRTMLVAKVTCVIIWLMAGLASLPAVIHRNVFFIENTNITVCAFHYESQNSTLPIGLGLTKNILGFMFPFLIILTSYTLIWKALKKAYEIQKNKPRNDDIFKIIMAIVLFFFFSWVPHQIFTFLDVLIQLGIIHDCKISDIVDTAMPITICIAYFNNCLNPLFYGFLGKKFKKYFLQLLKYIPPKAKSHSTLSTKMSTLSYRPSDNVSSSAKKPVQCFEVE
Method: (§1) The antagonism of one or more of the physiological actions of AII and, in particular, the antagonism of the interaction of AII with the receptors which mediate its effects on a target tissue, may be assessed using one or more of the following, routine laboratory procedures.
Test A: This in vitro procedure involves the incubation of the test compound initially at a concentration of 100 micromolar (or less) in a buffered mixture containing fixed concentrations of radiolabelled AII and a cell surface membrane fraction prepared from a suitable angiotensin target tissue. In this test, the source of cell surface membranes is the guinea pig adrenal gland which is well known to response to AII. Interaction of the radiolabelled AII with its receptors (assessed as radiolabel bound to the particulate membrane fraction following removal of unbound radiolabel by a rapid filtration procedure such as is standard in such studies) is antagonized by compounds which also bind to the membrane receptor sites and the degree of antagonism (observed in the test as displacement of membrane-bound radioactivity) is determined readily by comparing the receptor-bound radioactivity in the presence of the test compound at the specified test concentration with a control value determined in the absence of the test compound. […]

[2] = test system: pressor responses induced by AII; test: Test C: antagonism of AII-induced pressor responses in terminally-anaesthetised or conscious rats; assay type: in vivo; conditions: iv, rat, i.v. administration, AII-induced pressor response
Excerpt: as §1
Test C: This in vivo test involves using terminally-anaesthetised or conscious rats in which an arterial catheter has been implanted under anaesthesia for the measurement of changes in blood pressure. The AII antagonistic effects of the test compound following oral or parenteral administration, are assessed against pressor responses induced by AII. To ensure that the effect is specific the effect of the test compound on vasopressin-induced pressor responses may also be determined in the same preparation.

Work on `CCNC(=O)OCCOc1ccc2nc(CC)cc(OCc3ccc(-c4ccccc4-c4nn[nH]n4)cc3)c2n1` [Example 2, 2-ethyl-6-(2-ethylaminocarbonyloxy)ethoxy)-4-[(2'-(1H-tetrazol-5-yl)biphenyl-4-yl)methoxy]-1,5-naphthyridine hydrochloride] yielded an IC50 [1] of 18 nM and an ED50 [2] of 0.08 mg/kg.
